Reference: PubChem BioAssay (NCI)
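Interpolation was linear, between the two tested concentrations surrounding the appropriate level; five concentrations were tested over 48 hours in 96-well plates. The concentration for full growth arrest is given as TGI.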

How the values were obtained:
Assay in all cases: DTP human tumour cell line panel, 48 h
[1] = tested on: T-47D breast
[2] = tested on: MDA-MB-435
[3] = tested on: LOX IMVI melanoma
[4] = tested on: SW-620 colon
[5] = tested on: IGROV1 ovarian
[6] = tested on: HL-60(TB) leukemia
[7] = tested on: KM12 colon
[8] = tested on: OVCAR-8 ovarian
[9] = tested on: NCI/ADR-RES ovarian
[10] = tested on: TK-10 renal
[11] = tested on: M14 melanoma
[12] = tested on: MDA-MB-231 breast
[13] = tested on: SNB-75 CNS
[14] = tested on: HCT-116 colon
[15] = tested on: NCI-H23 lung
[16] = tested on: NCI-H522 lung
[17] = tested on: SF-539 CNS
[18] = tested on: NCI-H460 lung

Row | SMILES | TGI [1] [µM] | TGI [2] [µM] | TGI [3] [µM] | TGI [4] [µM] | TGI [5] [µM] | TGI [6] [µM] | TGI [7] [µM] | TGI [8] [µM] | TGI [9] [µM] | TGI [10] [µM] | TGI [11] [µM] | TGI [12] [µM] | TGI [13] [µM] | TGI [14] [µM] | TGI [15] [µM] | TGI [16] [µM] | TGI [17] [µM] | TGI [18] [µM]
1 | CSC(=NC1CC(n2cc(C)c(=O)[nH]c2=O)OC1CO)NC#N (centres undefined) | > 100 | > 100 | > 100 | > 100 | > 100 | > 100 | > 100 | > 100 | > 100 | > 100 | > 100 | > 100 | > 100 | > 100 | > 100 | > 100 | > 100 | > 100
2 | C=CC1(c2ccc3ccccc3c2)OCC(CC)(CC)CO1 | 52.2 | 65.7 | 34.5 | 43.4 | 52.3 | 41.4 | 40.6 | > 100 | 66.4 | 89.5 | 60.6 | 33.9 | 96.1 | 43.2 | 49.3 | 50.9 | 33.5 | 46.8
3 | O=C1NCC2(CCN(Cc3ccccc3)CC2)N1 | > 100 | > 100 | > 100 | > 100 | > 100 | > 100 | > 100 | > 100 | > 100 | > 100 | > 100 | > 100 | > 100 | > 100 | > 100 | > 100 | > 100 | > 100
4 | Oc1ccc2ccccc2c1-c1c(Nc2ccccc2)ccc2ccccc12 | 39.5 | 20.2 | 48.5 | 26.8 | 18.7 | 48.4 | 37.3 | 33.8 | > 51.3 | 32.1 | 24.4 | 28.1 | 31.9 | 33.5 | 30 | 29.6 | 29.7 | 39.9
5 | COc1ccc(-n2nnc3c(C#N)c(-c4ccccc4)c(C)n3c2=O)cc1 | > 100 | > 100 | > 100 | > 100 | > 100 | 68.2 | > 100 | > 100 | > 100 | > 100 | > 100 | 81.6 | 72.1 | > 100 | > 100 | > 100 | > 100 | > 100
6 | Cc1c(C)c(S(=O)(=O)N(CCCCCN)OCCCN)c(C)c2c1OC(C)(C)CC2 | > 57.8 | 15.3 | > 44.4 | > 40.2 | 11 | 5.92 | 8.93 | > 50 | 41.7 | 37.8 | > 100 | 31.7 | 25.7 | 30 | 33 | 13.3 | > 100 | 19.7
7 | CC(C)(C)[Si](C)(C)OCC1OC(n2cc(F)c(=O)[nH]c2=O)CC1O[Si](C)(C)C(C)(C)C (centres undefined) | 12.7 | 26.5 | 20 | 23.1 | 19.7 | 12.5 | 14.7 | 35.7 | 35.6 | 13.9 | 30.9 | 22 | 15.9 | 19.8 | 19.6 | 12.7 | 30.7 | 15.7
8 | Oc1ccc(-c2c3ccccc3c(-c3ccc(OCCBr)cc3)c3ccccc23)cc1 | > 100 | 42 | 38.9 | > 100 | 44.2 | 70.1 | 83.6 | 64 | 75.6 | 99.2 | 37 | 44.6 | 60.9 | > 100 | 34.9 | 74 | 32.4 | > 100
9 | CSc1c(CC(=O)O)n(Cc2ccccc2)c2ccccc12 | > 100 | > 100 | > 100 | > 100 | > 100 | > 100 | > 100 | > 100 | > 100 | > 100 | > 100 | > 100 | > 100 | > 100 | > 100 | > 100 | > 100 | > 100
10 | COc1ccc(N2C(=O)CSC2c2cc3cc(Br)ccc3nc2Cl)cc1 (centres undefined) | > 50 | > 50 | > 50 | > 50 | > 50 | > 50 | > 50 | > 50 | > 50 | > 50 | > 50 | > 50 | > 50 | > 50 | > 50 | > 50 | > 50 | > 50
11 | COc1ccc(OC)c(C2CCCc3c2cnc2nc(N)nc(N)c32)c1 (centres undefined) | > 100 | > 100 | > 100 | > 100 | > 100 | > 100 | > 100 | > 100 | > 100 | > 100 | > 100 | > 100 | 41 | > 100 | > 100 | > 100 | > 100 | > 100
12 | CC(C)=CCC[C@](C)(O)[C@H]1CC[C@]2(C)[C@@H]1[C@H](O)C[C@@H]1[C@@]3(C)CC[C@H](O[C@@H]4O[C@H](CO)[C@@H](O)[C@H](O)[C@H]4O)C(C)(C)[C@@H]3CC[C@]12C | 34 | 36.1 | 91.5 | 36.6 | 29.8 | 45.8 | 33.3 | 33.6 | 55.1 | 39.6 | 46 | 36.4 | 33.5 | 41.2 | 38 | 31.9 | 38.8 | 30.2
13 | CC(Oc1ccccc1)C(=O)NN (centres undefined) | > 100 | > 100 | > 100 | > 100 | > 100 | > 100 | > 100 | > 100 | > 100 | > 100 | > 100 | > 100 | > 100 | > 100 | > 100 | > 100 | > 100 | > 100
